The values below come from patent EP0937711A1, “Thiobenzamides, process for their preparation and medicaments containing them” (Roche Diagnostics GmbH, priority 1998, dated 1999).

Bounds are passed on as bounds.

One assay addresses T1, humanem Faktor Xa (Homo sapiens, UniProt P00742).
T1 construct: humanem Faktor Xa; purchased Boehringer Mannheim GmbH
The assay can be described thus: Inhibition constants (Ki), chromogenic substrate Chromozym X, FXa. The conditions noted are these: pH 7.5, 25°C, 0.1 M phosphate buffer. It counts as biochemical. The method, then: (§1) Die kinetischen Messungen wurden in 0.2 M Kochsalz und 0.5 % Polyethylenglycol 6000 enthaltendem 0.1 M Phosphatpuffer (Herstellung siehe unten) bei pH 7.5 und 25°C in Polystyrol-Halbmikroküvetten in einem Gesamtvolumen von 1 mi durchgeführt. Die Reaktionen wurden durch Zugabe von Enzym zu vorinkubierten Lösungen, die entweder Dimethylsulfoxid (Kontrolle) oder Lösungen der Testsubstanz in DMSO (Inhibitor-Stocklösungen: 10 mM in DMSO) enthielten, gestartet. Die Zunahme der Extinktion bei 405 nm als Folge der Freisetzung von 4-Nitroanilin aus dem Substrat wurde photometrisch über einen Zeitraum von 12 Minuten verfolgt. Im Abstand von 20 Sekunden wurden Meßwerte (Extinktion vs. Zeit) ermittelt und diese Daten per Computer gespeichert.
(§2) Zur Bestimmung der Inhibitionskonstanten Ki wurde wie folgt vorgegangen: Die Geschwindigkeiten V0 (Extinktionsänderung pro Sekunde; Messungen ohne Inhibitor) und Vi (Extinktionsänderung pro Sekunde; Messungen mit Inhibitor) wurden durch lineare Regression bestimmt, wobei nur die Meßpunkte berücksichtigt wurden, bei der sich die Substratkonzentration um weniger als 15% verringerte. Aus einer Meßreihe (konstante Inhibitorkonzentration, variable Substratkonzentrationen) bestimmte man KM und VMAX durch nichtlinearen Fit auf die Gleichung V =(Vmax * [S])/([S] + KM) [formula] […]

The next assay addresses T2, Humanes α-Thrombin (Homo sapiens, UniProt P00734).
T2 construct: Humanes α-Thrombin; purchased Sigma
The assay can be described thus: Inhibition constants (Ki), chromogenic substrate S-2238, thrombin. Conditions: pH 7.5, 25°C, 0.1 M phosphate buffer. It counts as biochemical. The method, then:
as §1, §2

Assay [1] addresses T3, bovines pankreatisches Trypsin (Bos taurus, UniProt P00760).
T3 construct: purchased Sigma; host or cells: bovine pancreas
T3 sequence (P00760 24-246): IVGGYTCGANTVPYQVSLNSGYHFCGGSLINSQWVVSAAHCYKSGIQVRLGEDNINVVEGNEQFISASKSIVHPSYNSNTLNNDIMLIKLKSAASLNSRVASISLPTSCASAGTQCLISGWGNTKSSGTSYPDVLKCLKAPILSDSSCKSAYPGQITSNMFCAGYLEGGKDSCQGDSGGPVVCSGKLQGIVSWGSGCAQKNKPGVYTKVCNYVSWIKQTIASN
The assay can be described thus: Inhibition constants (Ki), chromogenic substrate S-2238, trypsin. Conditions: pH 7.5, 25°C, 0.1 M phosphate buffer. It counts as biochemical, bovin. The method, then: as §1, §2

Another assay relates to Citratplasma. The assay can be described thus: Activated partial thromboplastin time (APTT) in citrate plasma. The conditions noted are these: time as difference to control (control ca. 28-35 s); for APTT 1000: 1000 µM in final volume, stopped after 5 min (>300). It counts as biochemical. The method, then:
(§3) Neun Teile frisches Blut gesunder Spender werden mit einem Teil Natriumcitratlösung (0.11 Mol/l) gemischt und bei ca. 3000 U/min 10 Minuten bei Raumtemperatur zentrifugiert. Das Plasma wird abpipettiert und kann bei Raumtemperatur ca. 8 h aufbewahrt werden.
100 µl Citratplasma und 100 µl APTT-Reagenz (Diagnostica Stago / Boehringer Mannheim GmbH; enthält Lyophilisat Cephalin mit mikrokristallinem Kieselguraktivator) werden zusammen mit 10 µl Dimethylsulfoxid (DMSO) oder 10 µl einer Lösung der Wirksubstanz in DMSO in einem Kugelkoagulometer (KC10 der Fa. Amelung) 3 Minuten bei 37°C inkubiert. Mit Zugabe von 100 µl 0.025 M Calciumchlorid-Lösung wird eine Stoppuhr gestartet und der Zeitpunkt bis zum Eintritt der Gerinnung bestimmt. Die APTT beträgt bei den Kontrollmessungen ca. 28 -35 Sekunden und wird durch Wirksubstanzen verlängert. Sofern bei den Messungen nach 5 Minuten keine Gerinnung eintrat, wurde der Versuch gestoppt (>300).
In Tabelle 1 sind die gemessenen APTT-Zeiten in Sekunden als Differenz zur Kontrolle angegeben. Die Konzentrationen der Wirksubstanzen betrugen im Endvolumen 1000 µM (APTT 1000), 100 µM (APTT 100), 10 µM (APTT 10), 1 µM (APTT 1).

Another assay concerns Pferdethrombin. The assay can be described thus: Thrombin time in citrate plasma. It counts as biochemical, Pferd. The conditions noted are these: 500 µM in final volume; time as difference to control (control ca. 24 s). The method, then: as §3
200 µl Citratplasma werden in einem Kugelkoagulometer (KC10 der Fa. Amelung) 2 Minuten bei 37°C inkubiert. Zu 190 µl vortemperiertem Thrombin-Reagenz (Boehringer Mannheim GmbH; enthält ca. 3 U/ml Pferdethrombin und 0.0125 M Ca^++ gibt man 10 µl Dimethylsulfoxid (DMSO) oder eine Lösung der Wirksubstanz in DMSO. Mit Zugabe dieser 200 µl Lösung zum Plasma wird eine Stoppuhr gestartet und der Zeitpunkt bis zum Eintritt der Gerinnung bestimmt. Die Thrombinzeit beträgt bei den Kontrollmessungen ca. 24 Sekunden und wird durch Wirksubstanzen verlängert. Sofern bei den Messungen nach 5 Minuten keine Gerinnung eintrat, wurde der Versuch gestoppt (>300).
In Tabelle 1 sind die gemessenen Thrombinzeiten in Sekunden als Differenz zur Kontrolle angegeben. Die Konzentrationen der Wirksubstanzen betrugen im Endvolumen 500 µM (TT 500).

T1 sequence (P00742 235-488 limits assumed): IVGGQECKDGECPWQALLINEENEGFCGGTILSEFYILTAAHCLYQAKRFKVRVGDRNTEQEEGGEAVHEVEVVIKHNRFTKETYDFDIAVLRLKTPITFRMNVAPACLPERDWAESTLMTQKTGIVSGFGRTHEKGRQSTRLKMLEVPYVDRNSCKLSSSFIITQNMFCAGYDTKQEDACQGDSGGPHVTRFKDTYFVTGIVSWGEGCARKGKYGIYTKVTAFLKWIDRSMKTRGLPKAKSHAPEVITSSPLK
T1 sequence (P00742 41-179 partner limits assumed): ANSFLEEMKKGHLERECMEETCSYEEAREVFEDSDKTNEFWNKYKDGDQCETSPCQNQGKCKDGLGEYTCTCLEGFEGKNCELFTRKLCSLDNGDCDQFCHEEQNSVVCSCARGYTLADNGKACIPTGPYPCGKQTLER

As a reminder, the Ki is a dissociation constant, usually derived from enzyme kinetics or from competition with a known ligand. Higher therefore signals lower affinity. Regarding `COc1ccc(C(=O)Nc2ccccc2NC(=O)c2ccc(C(N)=S)cc2)cc1` [Beispiel 3, 2-(4-Methoxy-benzoylamino)-1-(4-thiocarbamoyl-benzoylamino)-benzol], the inhibitory constant (Ki) on humanem Faktor Xa was 0.05 µM; at Humanes α-Thrombin it was greater than 100 µM; in assay [1], greater than 100 µM. Also, the “APTT 1” value in the assay on Citratplasma (1 µM in final volume) stood at 2.6 s. The “APTT 10” value in the assay with Citratplasma (10 µM in final volume) stood at 8.4 s. Further, the “APTT 100” value in the assay on Citratplasma (100 µM in final volume) came out at 32.4 s. In addition, the “APTT 1000” value in the assay on Citratplasma amounted to 157.9 s. Also, the “TT 500” value with Pferdethrombin came to 2.4 s. With `COC(=O)c1ccc(NS(=O)(=O)c2ccc(OC)cc2)c(NC(=O)c2ccc(C(N)=S)cc2)c1` [Beispiel 7, 4-(4-Methoxy-benzolsulfonylamino)-3-(4-thiocarbamoyl-benzoylamino)-benzoesäuremethylester], in the assay on Citratplasma, the “APTT 1000” value was found to be 0.8 s.

Regarding `COC(=O)c1ccc(NC(=O)c2ccc3ccccc3c2)c(NC(=O)c2ccc(C(N)=S)cc2)c1` [Beispiel 1, 4-[(Naphthalin-2-carbonyl)-amino]-3-(4-thiocarbamoyl-benzoylamino)-benzoesäuremethylester], in the assay on Citratplasma, the “APTT 1000” value is 1 s. Same read-out and setting: with `COC(=O)c1ccc(NC(=O)c2ccccc2C(=O)O)c(NC(=O)c2ccc(C(N)=S)cc2)c1` [Beispiel 6, 4-(2-Carboxy-benzoylamino)-3-(4-thiocarbamoyl-benzoylamino)-benzoesäuremethylester] the figure was 9.0 s; with `NC(=S)c1ccc(C(=O)Nc2ccccc2NC(=O)c2ccc(C(N)=S)cc2)cc1` [Beispiel 9, 1,2-Bis-(4-thiocarbamoyl-benzoylamino)-benzol], 6.7 s. Still for that read-out and setting: with `COC(=O)c1ccc(NC(=O)c2ccc(OC)cc2)c(NC(=O)c2ccc(C(N)=S)cc2)c1` [Beispiel 4, 4-(4-Methoxy-benzoylamino)-3-(4-thiocarbamoyl-benzoylamino)-benzoesäuremethylester] the figure was 65.3 s; with `NC(=S)c1ccc(C(=O)Nc2cc(C(=O)O)ccc2NS(=O)(=O)c2ccc3ccccc3c2)cc1` [Beispiel 10, 4-(Naphthalin-2-sulfonylamino)-3-(4-thiocarbamoyl-benzoylamino)-benzoesäure], 0.7 s; with `COC(=O)c1ccc(NS(=O)(=O)c2ccc3ccccc3c2)c(NC(=O)c2ccc(C(N)=S)cc2)c1` [Beispiel 8, 4-(Naphthalin-2-sulfonylamino)-3-(4-thiocarbamoyl-benzoylamino)-benzoesäuremethylester], -0.4 s. For `NC(=S)c1ccc(C(=O)Nc2cc(C(=O)O)ccc2NC(=O)c2ccc3ccccc3c2)cc1` [Beispiel 2, 4-[(Naphthalin-2-carbonyl)-amino]-3-(4-thiocarbamoyl-benzoylamino)-benzoesäure], in the assay with Citratplasma, the “APTT 1000” value was found to be 9.4 s. On the same count and under the same terms, with `COC(=O)c1ccc(NC(=O)c2ccc(OC)c(OC)c2)c(NC(=O)c2ccc(C(N)=S)cc2)c1` [Beispiel 5, 4-(3,4-Dimethoxy-benzoylamino)-3-(4-thiocarbamoyl-benzoylamino)-benzoesäuremethylester] the figure was 3.5 s.
